Consider four compounds from PMC13237142, “Proteome-wide quantification of inositol pyrophosphate-protein interactions” (Nature Communications, 2026).

In data set [1] the test system is XPR1. As to conditions: compared with InsP6 and 5PP-InsP5; cited from earlier work.
The conditions of data set [2]: in the presence of Mg^2+ ions; cited from earlier work.
Data set [3] deals with T1, PDAP1 (Homo sapiens, UniProt Q13442).
T1 construct: endogenous in cells; host or cells: HEK293T cytosolic fraction
T1 sequence (Q13442 1-181): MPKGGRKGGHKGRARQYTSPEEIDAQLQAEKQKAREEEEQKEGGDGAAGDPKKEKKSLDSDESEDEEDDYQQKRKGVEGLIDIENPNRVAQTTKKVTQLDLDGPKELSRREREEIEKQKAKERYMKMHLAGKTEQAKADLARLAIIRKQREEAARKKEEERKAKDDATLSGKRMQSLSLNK
The experiment in a line: KDapp by affinity enrichment/TMT-MS. In kind it is binding. Particulars: Mg^2+(cyto) HEK293T lysate; read-out: KD^app.
Experimental: (§1) Cells were lysed using two different lysis buffers (containing either 1 mM EDTA or containing 1 mM Mg^2+), and the lysates were separated into nuclear and cytosolic fractions to provide deeper proteome coverage (Supplementary Fig. 8). […] Following quick washing steps, the retained proteins were eluted with an excess of the corresponding free ligand. The samples were digested with trypsin, followed by 11-plex TMT isobaric labeling, subsequent sample pooling, and LC-MS/MS analysis. To ensure robustness of the datasets, the experiments were performed in biological triplicates, and only proteins fully quantified in at least two replicates were further analyzed. […] In addition, model validity was assessed by an F-test comparing the Hill-like fit to a null model, and only proteins with statistically significant fits (p ≤ 0.05) were considered. Furthermore, a cutoff of log2 fold-change ≥ 1 between the endpoints was applied (Supplementary Data 1).
(§2) Cells were washed twice with ice-cold 0.9 mM NaCl in H2O (10 mL), carefully scraped off, added to protein low-binding microcentrifuge tubes, and ice-cold PBS (1 mL) was added. The cells were pelleted for 2 min, 250 g at 4 °C, and the supernatant was removed. The pellet was washed twice with ice-cold PBS (1 mL), the supernatant was removed, and the pellet was kept on ice. […]

The target of data set [4] is T2, POLR2I (Homo sapiens, UniProt P36954).
T2 construct: endogenous in cells; host or cells: HEK293T lysate fraction
The experiment in a line: KDapp by affinity enrichment/TMT-MS. Particulars: binding curve, Supplementary Fig. 9.

Data set [5] addresses T3, PPIP5K2 (Homo sapiens, UniProt O43314).
T3 construct: endogenous in cells; host or cells: HEK293T cytosolic fraction (Mg2+)
T3 sequence (O43314 1-1243): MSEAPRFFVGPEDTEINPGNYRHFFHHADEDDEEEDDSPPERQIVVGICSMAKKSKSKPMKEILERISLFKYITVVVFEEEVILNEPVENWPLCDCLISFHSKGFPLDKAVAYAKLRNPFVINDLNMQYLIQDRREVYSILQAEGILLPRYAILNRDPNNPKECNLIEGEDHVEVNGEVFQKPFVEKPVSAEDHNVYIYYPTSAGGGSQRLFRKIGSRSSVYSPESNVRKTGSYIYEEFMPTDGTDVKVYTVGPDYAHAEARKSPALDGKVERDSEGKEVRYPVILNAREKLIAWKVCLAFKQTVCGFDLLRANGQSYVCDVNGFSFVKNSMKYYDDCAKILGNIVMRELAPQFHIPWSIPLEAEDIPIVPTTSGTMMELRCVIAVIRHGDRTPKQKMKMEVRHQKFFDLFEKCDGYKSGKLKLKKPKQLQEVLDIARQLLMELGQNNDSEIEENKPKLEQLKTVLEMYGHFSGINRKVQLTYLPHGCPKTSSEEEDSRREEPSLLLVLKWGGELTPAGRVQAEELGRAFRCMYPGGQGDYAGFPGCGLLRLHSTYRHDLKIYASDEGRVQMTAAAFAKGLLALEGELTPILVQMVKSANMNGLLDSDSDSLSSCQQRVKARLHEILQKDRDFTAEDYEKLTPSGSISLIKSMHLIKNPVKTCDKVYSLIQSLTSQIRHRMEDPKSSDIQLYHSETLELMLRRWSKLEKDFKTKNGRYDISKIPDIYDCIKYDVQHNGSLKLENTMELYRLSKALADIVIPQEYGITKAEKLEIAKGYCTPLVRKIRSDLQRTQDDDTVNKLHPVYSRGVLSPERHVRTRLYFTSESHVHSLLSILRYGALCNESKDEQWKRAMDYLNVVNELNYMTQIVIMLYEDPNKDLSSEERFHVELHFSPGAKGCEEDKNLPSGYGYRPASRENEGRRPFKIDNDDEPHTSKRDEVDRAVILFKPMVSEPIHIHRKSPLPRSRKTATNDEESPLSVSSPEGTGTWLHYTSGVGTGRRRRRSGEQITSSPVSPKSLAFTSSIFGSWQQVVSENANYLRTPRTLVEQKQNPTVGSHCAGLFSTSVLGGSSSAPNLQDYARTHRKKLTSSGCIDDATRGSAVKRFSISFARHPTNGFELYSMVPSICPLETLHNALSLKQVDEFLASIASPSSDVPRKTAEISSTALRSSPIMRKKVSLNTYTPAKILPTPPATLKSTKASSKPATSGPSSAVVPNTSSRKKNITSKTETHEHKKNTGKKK
The experiment in a line: KDapp by affinity enrichment/TMT-MS. In kind it is binding. As to conditions: in the presence of Mg^2+ ions, cytosolic dataset.
Experimental: as §1, §2

Data set [6] relates to proteins of HEK293T cell lysates (cytosolic/nuclear, EDTA/Mg2+). The data set is described as follows: Proteome-wide KDapp, all four lysate preparations together. In kind it is binding, human. Particulars: Mg^2+ ions present; read-out: KD^app values of the top 50 proteins.
Data set [7] concerns the target T4, MMTAG2 (Homo sapiens, UniProt Q9BU76).
T4 construct: endogenous in cells; host or cells: HEK293T nuclear fraction (Mg2+)
The experiment in a line: KDapp by affinity enrichment/TMT-MS. The format is binding. Particulars: Mg^2+nucl HEK293T lysate; read-out: KD^app.
Experimental: as §1, §2

Data set [8] concerns the target T5, PMVK (Homo sapiens, UniProt Q15126).
T5 construct: 6xHis (N, cleaved yes); V5 (N, cleaved yes); made in house; host or cells: E. coli BL21 (DE3)
T5 sequence (Q15126 1-192): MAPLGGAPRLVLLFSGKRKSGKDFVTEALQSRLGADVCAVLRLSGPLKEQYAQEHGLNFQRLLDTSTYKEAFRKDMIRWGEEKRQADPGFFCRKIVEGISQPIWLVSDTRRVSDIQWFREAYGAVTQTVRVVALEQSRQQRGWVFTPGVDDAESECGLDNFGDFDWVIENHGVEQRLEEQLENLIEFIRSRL
The data set is described as follows: Isothermal titration calorimetry with recombinant PMVK. In kind it is binding. Particulars: ITC, 25 °C, 50 μM protein, 500 μM ligand, buffer pH 7.4 with 1 mM MgCl2; triplicate. On the technique in general: ITC needs no label: the signal is the heat of the interaction.
Experimental: Protein stocks were subjected to buffer exchange using final buffer conditions: 25 mM HEPES, pH 7.4, 150 mM KCl, 1 mM MgCl2, 40 mM NaCl, 0.5 mM TCEP (ITC buffer). The exact protein concentration was determined by BCA assay and adjusted to 50 μM. […] ITC experiments were carried out at 25 °C in a MicroCal PEAQ-ITC calorimeter (Malvern Panalytical GmbH, Kassel, Germany), with ca. 50 μM protein in the cell and 500 μM ligand in the syringe. InsPs were titrated into the solution in nineteen 2 μL-steps. Spacing between injections was 150 s. The corresponding instrument software (MicroCal PEAQ-ITC Analysis) was used for baseline correction, peak integration, data fitting and determination of binding parameters. All experiments were carried out in triplicate.

SMILES strings stand for the structures.

T4 sequence (Q9BU76 whole entry): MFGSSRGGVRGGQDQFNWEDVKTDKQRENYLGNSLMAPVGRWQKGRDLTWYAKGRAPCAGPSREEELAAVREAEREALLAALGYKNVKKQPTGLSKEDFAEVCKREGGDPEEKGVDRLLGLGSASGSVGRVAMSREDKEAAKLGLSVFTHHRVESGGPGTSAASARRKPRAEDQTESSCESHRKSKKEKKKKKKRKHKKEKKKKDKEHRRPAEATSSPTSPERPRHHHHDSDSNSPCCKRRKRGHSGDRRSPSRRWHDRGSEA

For the compound `O=P(O)(O)O[C@@H]1[C@@H](OP(=O)(O)O)[C@H](OP(=O)(O)OP(=O)(O)O)[C@@H](OP(=O)(O)O)[C@H](OP(=O)(O)OP(=O)(O)O)[C@@H]1OP(=O)(O)O` [1,5(PP)2-InsP4, bis-1,5-diphosphoinositol tetrakisphosphate], the “in vitro binding affinity to XPR1” value in data set [1] is listed as “highest”. Also, the “fraction adopting the flipped conformation” value in data set [2] is approximately 30%.
On to `O=C(CCCC[C@@H]1SC[C@@H]2NC(=O)N[C@@H]21)NCCOCCOCCOCCOCCOP(=O)(O)O[C@@H]1[C@@H](OP(=O)(O)O)[C@H](OP(=O)(O)CP(=O)(O)O)[C@@H](OP(=O)(O)O)[C@H](OP(=O)(O)CP(=O)(O)O)[C@@H]1OP(=O)(O)O` [b-1,5(PCP)2-InsP4], for which the Kd in data set [3] is 600 nM; in data set [6], less than 1000 nM; in data set [7], 1900 nM. Besides, in data set [4], the “binding to POLR2I” value is “strong binding”. In addition, in data set [5], the “binding to PPIP5K2 (binding curves)” value is “tight binding”.
On to `O=P(O)(O)O[C@H]1[C@H](OP(=O)(O)O)[C@@H](OP(=O)(O)O)[C@H](OP(=O)(O)O)[C@@H](OP(=O)(O)O)[C@H]1OP(=O)(O)O` [InsP6, inositol hexakisphosphate], for which the Kd in data set [8] was determined as 4000 ± 300 nM.
Regarding `O=P(O)(O)O[C@H]1[C@@H](OP(=O)(O)O)[C@H](OP(=O)(O)O)[C@@H](OP(=O)(O)OP(=O)(O)O)[C@H](OP(=O)(O)O)[C@H]1OP(=O)(O)O` [5PP-InsP5, 5-diphosphoinositol pentakisphosphate], in data set [8], the Kd was determined as 9500 ± 1000 nM.
